{"source": "patent US11634452B2", "about": "“Compounds for treating neurodegenerative disorders” (ETHNODYNE, priority 2017, dated 2023)", "system": "primary cocultures of central neurons and oligodendrocytes", "experiment": "In vitro MS (myelination) model", "type": "cell-based, rat", "method": "A reproducible in vitro myelination model based on primary cocultures of central neurons and oligodendrocytes culturing in 96-well plate is used and adapted to high throughput screening.\nNeurons/oligodendrocytes were cultured as previously described by Charles et al., 2000. PNAS 97 7585-7590.\nBriefly, pregnant Wistar female rats of 17 days gestation were killed by cervical dislocation (Janvier Labs, France) and the foetuses removed from the uterus. The forebrains were removed and placed in ice-cold medium of Leibovitz (L15; Pan Biotech, Germany) containing 2% of Penicillin-Streptomycin (Batch 1451013, PanBiotech) and 1% of bovine serum albumin (BSA) (Batch K180713, Pan Biotech). Cortexes were dissociated by trypsinisation for 20 min at 37° C., with Trypsin EDTA 1× (Batch 7310713, PanBiotech). The reaction was stopped by the addition of Dulbecco's modified Eagle's medium (DMEM) (Batch 9710913, PanBiotech) containing DNAase I grade II at 0.1 mg/mL (Batch H131108, PanBiotech) and 10% of foetal calf serum (Batch 41Q7218K, Invitrogen, France). Cells were then mechanically dissociated by 3 passages through a 10 mL pipette. Cells were centrifuged at 180×g for 10 min at 4° C. temperature on a layer of BSA (3.5%) in L15 medium. The supernatant was discarded and cells of the pellet were re-suspended in DMEM containing 10% of FCS. […] The supernatant was discarded and cells of pellet were re-suspended in a culture medium consisting of Neurobasal (Batch 1625353, Invitrogen) supplemented with 2% of B27 (Batch 1618508, Invitrogen), 2 mM of L-glutamine (Batch 6620314, PanBiotech), 2% of PS solution, 1% of foetal calf serum (FCS) and 10 ng/mL of platelet-derived growth factor (PDGF-AA) (Batch H131205, PanBiotech).\nThe plates were maintained at 37° C. in a humidified incubator, in an atmosphere of air (95%)-CO2 (5%). Half of the medium was changed every 2 days with fresh medium in presence or absence of compound.\nPlate 1 for Day 12 (A2B5) and plate 2 for Day 18 (MAG evaluation) • Control (vehicle) • Compound CR777 of example 1 (1 pmol/L) • Compound CR777 of example 1 (10 pmol/L) • Compound CR777 of example 1 (100 pmol/L) • Compound CR777 of example 1 (1 nmol/L) • Compound CR777 of example 1 (10 nmol/L) • Compound CR777 of example 1 (100 nmol/L) • Compound CR777 of example 1 (1 μmol/L) • Compound CR777 of example 1 (10 μmol/L)\nThe cells were then permeabilized and non-specific sites were blocked with a solution of phosphate buffered saline (Batch 3010914, PanBiotech) containing 0.1% of saponin (Batch BCBJ8417V, Sigma) and 1% FCS for 15 min at room temperature.\nOn day 12, cells were incubated with Monoclonal Anti-A2B5 conjugated Alexa Fluor® 488 produced in mouse (Batch 2281669, Millipore, France) at dilution of 1/200 in PBS containing 1% FCS, 0.1% saponin, and with anti-MAP-2 antibody produced in chicken (Batch GR180541-3, AbCam; United Kingdom) at dilution of 1/1000 in PBS containing 1% FCS, 0.1% saponin for 2 h at room temperature. […]\nThe immunolabeled cultures were automatically examined with ImageXpress (Molecular Devices) equipped with a LED at ×20 magnification. […] Number of A2B5 positive cells and number of MAG positive cells were automatically analyzed by using Custom module editor (Molecular Devices). […] All values were expressed as mean+/−SEM (s.e.mean) of the 6 wells. […]", "key": {"[1]": {"conditions": "18 days of treatment, significant from 1 pmol/L up to 1 μmol/L, not at 10 μM"}}}
{"smiles": "CC1=C(CO)C(=O)O[C@@H]([C@@H](C)[C@H]2CCC3C4C[C@H](SC[C@H](NC(=O)CC[C@@H](N)C(=O)O)C(=O)NCC(=O)O)[C@]5(O)[C@@H](O)C=CC(=O)[C@]5(C)C4CC[C@@]32C)C1", "note": "(some centres unmarked) [CR777]", "values": [{"measurement": "OPC (precursor cells of oligodendrocytes) number, A2B5 positive cells", "setting": "12 days treatment, 1 pmol/L to 10 μmol/L", "value": "did not show any significant increase"}, {"measurement": "total number of OPCs", "setting": "12 days treatment, at the highest doses", "value": "decrease of the total number of OPCs"}, {"measurement": "maximal effect on MAG, increase vs control", "setting": "18 days of treatment, all doses", "value": "~60", "unit": "%"}, {"measurement": "myelination of neurons by OL (area of MAG expression)", "setting": "[1]", "value": "significantly improved"}, {"measurement": "number of MAG positive cells (OL)", "setting": "[1]", "value": "able to increase the number of MAG positive cells"}]}
